Measurements from PMC7617869, “Molecular glues that inhibit deubiquitylase activity and inflammatory signaling” (Nature Structural & Molecular Biology, 2025).
Values joined by “and” are separate entries in the source; they are usually repeats but may differ in a detail not shown here. Equal values may be shown once.

Tests used:
[1] = system: AMSH* (a STAM2–AMSH fusion); experiment: AMSH* IQF DUB activity assay; type: biochemical; conditions: Fig. 1g, AMSH*
Description: (§1) IQF assays were performed in DUB reaction buffer containing 50 mM HEPES–NaOH pH 7.0, 100 mM NaCl, 0.1 mg ml^−1 BSA, 1 mM DTT and 0.03% v/v Brij-35. […] The final concentration of BRISC WT, all BRISC mutants, HsBRISCΔLoop, MmBRISC and DrBRISCΔNΔC was 1 nM. Other enzymes were tested at the following concentrations: 5 nM ARISC (FL), 10 nM CfBRISCΔNΔC, 250 nM AMSH* (ref. [43]), 500 nM USP2 and 1 μM trypsin (Sigma, 9002-07-7). For Michaelis–Menten experiments, 1 nM BRISC with 0–1 μM IQF K63-linked diubiquitin substrate was used. Michaelis–Menten analyses and Lineweaver–Burk plots were calculated using GraphPad Prism (version 9.0).
(§2) To assess enzymatic activity, BRISC complexes were diluted to concentrations between 1 nM and 50 nM. […] Then, 20-μl enzyme reactions were carried out in 384-well black flat-bottom low-flange plates (Corning, 35373). DUB activity was measured using IQF K63-linked diubiquitin (LifeSensors, DU6303) at 50 nM. Cleaved diubiquitin was monitored by measuring fluorescence intensity (excitation, 544 nm; emission, 575 nm; dichroic mirror, 560 nm). Fluorescence intensity was measured every minute for 30 min at 30 °C. Fluorescence intensity units were plotted against time to generate a linear reaction progress curve, where the initial velocity (V0) corresponds to the gradient of the curve (typically achieved within 15 min). IC50 values were calculated using the GraphPad Prism (version 9.0) built-in dose–response equation for inhibitor concentration versus response (variable slope).

USP2 = biological target: T1, USP2 (Homo sapiens, UniProt O75604); experiment: USP2 IQF diubiquitin selectivity assay; type: biochemical; conditions: Fig. 1g, USP2
T1 construct: His (N, cleaved yes); host or cells: Escherichia coli BL21(DE3)
T1 sequence (O75604 258-605 limits assumed): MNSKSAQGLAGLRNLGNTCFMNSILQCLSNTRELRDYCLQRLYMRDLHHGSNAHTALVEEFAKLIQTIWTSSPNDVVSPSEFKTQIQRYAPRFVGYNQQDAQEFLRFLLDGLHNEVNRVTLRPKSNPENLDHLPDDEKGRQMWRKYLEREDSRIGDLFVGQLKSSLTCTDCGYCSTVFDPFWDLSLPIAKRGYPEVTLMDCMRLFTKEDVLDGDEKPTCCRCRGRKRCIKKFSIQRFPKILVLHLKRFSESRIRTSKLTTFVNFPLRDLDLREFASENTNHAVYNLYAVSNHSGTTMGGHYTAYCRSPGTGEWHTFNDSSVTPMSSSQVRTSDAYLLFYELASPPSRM
Description: BRISC DUB activity was measured at room temperature using 1 nM BRISC and 500 nM IQF diubiquitin K63 substrate (LifeSensors, DU6303) in the presence of DMSO and compounds at 10 μM (final concentrations). Assays were performed in 384-well black flat-bottom low-flange plates (Corning, 35373) in buffer containing 50 mM HEPES–NaOH pH 7.0, 100 mM NaCl, 1 mg ml^−1 BSA, 1 mM DTT and 0.03% v/v Brij-35. Then, 10 μl of twofold concentrated enzyme stock was dispensed, followed by transfer of 200 nl of compounds (1 mM stock) using a 384-pin tool and a 15-min incubation at room temperature. Then, 10 μl of twofold concentrated substrate stock was added and the reaction was monitored by measuring fluorescence intensity (excitation, 540 nm; emission, 580 nm) after 20-min incubation at room temperature and ~50% of substrate was consumed. Orthogonal assays for verification of H20 and P12 hit compounds using USP2 (100 nM) and trypsin (125 nM) were performed in identical conditions.
as §1, §2

BRISC (FL) = biological target: T2, BRISC (FL) (Homo sapiens, UniProt P46736+Q15018+Q9NXR7); experiment: Native MS of BRISC with inhibitor; conditions: 10 μM BRISC, 1 mM inhibitor
T2 construct: full-length BRISC (FL), ARISC (FL); made in house; host or cells: Spodoptera frugiperda Sf9 insect cells (MultiBac)
Description: Samples were buffer-exchanged into 500 mM ammonium acetate using Zeba Spin (7-kDa molecular weight cutoff) desalting columns (Thermo Fisher Scientific). Samples were analyzed by nanoelectrospray ionization MS using a quadrupole orbitrap MS (Q-Exactive UHMR, Thermo Fisher Scientific) using gold–palladium-coated nanospray tips prepared in-house. The MS instrument was operated in positive ion mode using a capillary voltage of 1.5 kV, capillary temperature of 250 °C and S-lens radiofrequency of 200 V. In-source trapping was used with a desolvation voltage of −200 V for 4 μs. Extended trapping was not used. The quadrupole mass range was 2,000–15,000 m/z. Nitrogen gas was used in the higher-energy collisional dissociation cell with a trap gas pressure setting of 5. Orbitrap resolution was 6,250 and detector m/z optimization was low. Five microscans were averaged and an automatic gain control target of 2 × 10^5 was used. Mass calibration was performed by a separate injection of sodium iodide at a concentration of 2 μg μl^−1. Data processing was performed using QualBrowser (version 4.2.28.14) and deconvoluted using UniDec[82].

Structure (SMILES): O=C(NC1C2CNCC21)c1nn(C(=O)c2c(Cl)cccc2Cl)cc1NC(=O)c1c(Cl)cccc1Cl (centres unmarked) [FX-171-C]
- Normalised V0 ([1]; FX-171-C 0.02 μM): 1.102 and 0.9959 and 1.122
- Normalised V0 ([1]; FX-171-C 0.0399999 μM): 1.076 and 0.9687 and 1.118
- Normalised V0 ([1]; FX-171-C 0.0599997 μM): 1.166 and 0.9974 and 1.026
- Normalised V0 ([1]; FX-171-C 0.0799994 μM): 1.155 and 1.046 and 1.034
- Normalised V0 ([1]; FX-171-C 0.119998 μM): 1.236 and 1.107 and 1.142
- Normalised V0 ([1]; FX-171-C 0.199996 μM): 1.177 and 1.065 and 1.2539
- Normalised V0 ([1]; FX-171-C 0.499975 μM): 0.9946 and 0.8997 and 1.162
- Normalised V0 ([1]; FX-171-C 0.799936 μM): 1.22 and 0.8896 and 1.186
- Normalised V0 ([1]; FX-171-C 1.25984 μM): 1.058 and 1.1 and 1.143
- Normalised V0 ([1]; FX-171-C 1.9996 μM): 1.14 and 1.15 and 1.191
- Normalised V0 ([1]; FX-171-C 3.159 μM): 1.081 and 1.064 and 1.2182
- Normalised V0 ([1]; FX-171-C 5.19739 μM): 0.9976 and 1.106 and 1.16
- Normalised V0 ([1]; FX-171-C 7.99364 μM): 1.138 and 1.066 and 1.161
- Normalised V0 ([1]; FX-171-C 12.7839 μM): 1.171 and 0.9747 and 1.21
- Normalised V0 ([1]; FX-171-C 19.96 μM): 0.7795 and 0.741 and 1.28
- Normalised V0 ([1]; FX-171-C 31.4999 μM): 1.112 and 1.039 and 1.002
- Normalised V0 ([1]; FX-171-C 50.147 μM): 1.1142 and 0.9322 and 1.253
- Normalised V0 ([1]; FX-171-C 79.7601 μM): 1.095 and 0.9276 and 1.158
- Normalised V0 ([1]; FX-171-C 125.99 μM): 1.097 and 0.9974 and 1.112
- Normalised V0 ([1]; FX-171-C 199.922 μM): 0.8792 and 0.8896 and 0.9452
- Normalised V0 (USP2; FX-171-C 0.02 μM): 1.153 and 1.005 and 0.8911
- Normalised V0 (USP2; FX-171-C 0.0399999 μM): 1.181 and 1.054 and 0.8345
- Normalised V0 (USP2; FX-171-C 0.0599997 μM): 1.101 and 1.035 and 0.8564
- Normalised V0 (USP2; FX-171-C 0.0799994 μM): 1.262 and 0.9465 and 0.964
- Normalised V0 (USP2; FX-171-C 0.119998 μM): 1.156 and 1.12 and 1.0155
- Normalised V0 (USP2; FX-171-C 0.199996 μM): 1.162 and 0.9867 and 0.9385
- Normalised V0 (USP2; FX-171-C 0.499975 μM): 1.323 and 0.7865 and 0.9403
- Normalised V0 (USP2; FX-171-C 0.799936 μM): 1.167 and 0.9524 and 0.9376
- Normalised V0 (USP2; FX-171-C 1.25984 μM): 1.254 and 0.9797 and 0.8377
- Normalised V0 (USP2; FX-171-C 1.9996 μM): 1.211 and 0.9571 and 0.9503
- Normalised V0 (USP2; FX-171-C 3.159 μM): 1.329 and 0.7564 and 0.948
- Normalised V0 (USP2; FX-171-C 5.19739 μM): 1.206 and 0.9941 and 0.9284
- Normalised V0 (USP2; FX-171-C 7.99364 μM): 1.269 and 0.9668 and 0.7862
- Normalised V0 (USP2; FX-171-C 12.7839 μM): 1.167 and 1.027 and 0.9175
- Normalised V0 (USP2; FX-171-C 19.96 μM): 1.282 and 0.8934 and 0.9216
- Normalised V0 (USP2; FX-171-C 31.4999 μM): 1.071 and 0.9617 and 0.949
- Normalised V0 (USP2; FX-171-C 50.147 μM): 1.087 and 1.072 and 0.8163
- Normalised V0 (USP2; FX-171-C 79.7601 μM): 1.1 and 0.8638 and 0.912
- Normalised V0 (USP2; FX-171-C 125.99 μM): 1.048 and 0.9793 and 0.8997
- Normalised V0 (USP2; FX-171-C 199.922 μM): 1.047 and 0.829 and 0.8108
- BRISC dimers detected by native MS (BRISC (FL)): BRISC dimers with 4:4:4:4 stoichiometry were detected
